Earlier results, collected in patent US9475888B2, “Non anti-coagulative glycosaminoglycans comprising repeating disaccharide unit and their medical use” (DILAFOR AB, priority 2011, dated 2016).

Tests used:
[1] = species not specified
protracted labor = details: women receiving prophylaxis for deep venous thrombosis
uterus = details: Acta Obstetricia et Gynecologica, 2010; 89:147-150

| Substance | corresponding bioavailability (subcutaneous) [1] | protracted labor (protracted labor) | contractility of the uterus (uterus) |
| --- | --- | --- | --- |
| Heparin | about 10% | – | – |
| dalteparin | – | decrease | increase |
